In US8288375B2, “Fungicidal bicyclic pyrazoles” (E.I. du Pont de Nemours and Company, priority 2007, dated 2012):

How the values were obtained:
Assay type in all cases: in vivo
[1] = tested on: Puccinia recondite f sp. tritici; experiment: Test B: wheat leaf rust, test suspension sprayed on wheat seedlings, disease rating; details: 200 ppm test suspension;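 further: 200 ppm unless marked * meaning 40 ppm or ** meaning 10 ppm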
[2] = tested on: Erysiphe graminis f. sp. tritici; experiment: Test A: wheat powdery mildew, test suspension sprayed on wheat seedlings, disease rating; details: 200 ppm test suspension; 100 = 100% disease control, 0 = no control
Septoria tritici = experiment: Test E: wheat leaf blotch, test suspension sprayed on wheat seedlings, disease rating; details: 200 ppm test suspension;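 further: 200 ppm unless marked * meaning 40 ppm or ** meaning 10 ppm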
Fusarium graminearum = experiment: whole plant or invertebrate; details: 200 ppm test suspension
Septoria nodorum = experiment: Test D: wheat glume blotch, test suspension sprayed on wheat seedlings, disease rating; details: 200 ppm test suspension
Pythium aphanidermatum = experiment: Test L: bluegrass pythium blight, test suspension sprayed on bluegrass seedlings, disease rating; details: 200 ppm test suspension;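 further: 200 ppm unless marked * meaning 40 ppm or ** meaning 10 ppm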
Phytophthora infestans = experiment: whole plant or invertebrate; details: 200 ppm test suspension

Compound	Test B disease control rating [1]	Test A disease control rating [2]	Test E disease control rating (Septoria tritici)	Test C disease control rating (Fusarium graminearum)	Test D disease control rating (Septoria nodorum)	Test L disease control rating (Pythium aphanidermatum)	Test J disease control rating (Phytophthora infestans)
COc1nccc(-c2c(-c3ccc(F)cc3)nn3c2CCCC3)n1 [Compound 105]	94%	0%	100%	94%	78%	0%	73%
OC1(CNc2nccc(-c3c(-c4ccc(F)cc4)nn4c3CCCC4)n2)CC1 [compound 44]	85%	91%	100%	99%	89%	0%	65%
Fc1ccc(-c2nn3c(c2-c2ccnc(Nc4ccc(OC(F)(F)F)cc4)n2)CCCC3)cc1 [compound 60]	74%	0%	71%	91%	64%	0%	9%
CCN1CCCC1CNc1nccc(-c2c(-c3ccc(F)cc3)nn3c2CCCC3)n1 (centres unmarked) [compound 41]	79%	0%	50%	0%	0%	91%	0%
Cc1ccccc1-c1nn2c(c1-c1ccnc(NC(C)CO)n1)CCCC2 (centres unmarked) [compound 46]	74%	0%	50%	0%	0%	100%	97%
CC(COC(=O)c1cccnc1)Nc1nccc(-c2c(-c3ccc(F)cc3)nn3c2CCCC3)n1 (centres unmarked) [compound 68]	98%	0%	93%	99%	95%	100%	95%
CC(CO)Nc1nccc(-c2c(-c3ccc(F)cc3F)nn3c2COCC3)n1 (centres unmarked) [compound 127]	97%	0%	86%	96%	60%	99%	100%
OCC(CO)Nc1nccc(-c2c(-c3ccc(F)cc3)nn3c2CCCC3)n1 [compound 63]	91%	81%	82%	0%	0%	100%	9%
CC(C)Nc1nccc(-c2c(-c3ccsc3)nn3c2CCCC3)n1 [compound 43]	92%	0%	96%	98%	90%	100%	97%
Fc1cccc(-c2nn3c(c2-c2ccnc(NC4CC4)n2)CCC3)c1 [compound 103]	95%	85%	100%	99%	99%	100%	99%
CCC(CO)Nc1nccc(-c2c(-c3ccc(F)cc3)nn3c2CCCC3)n1 (centres unmarked) [compound 31]	95%	0%	98%	94%	78%	99%	80%
C[C@H](CO)Nc1nccc(-c2c(-c3ccc(F)cc3)nn3c2CCCC3)n1 [compound 47]	91%	0%	94%	69%	0%	100%	99%
Fc1ccc(-c2nn3c(c2-c2ccnc(NCc4cccs4)n2)CCCC3)cc1 [compound 39]	67%	0%	88%	60%	60%	0%	0%
CC(C)Nc1nccc(-c2c(-c3ccc(F)cc3F)nn3c2COCC3)n1 [compound 125]	86%	20%	88%	100%	89%	100%	100%
CC(C)CNc1nccc(-c2c(-c3ccc(F)cc3)nn3c2CCCC3)n1 [compound 29]	95%	0%	85%	100%	98%	0%	47%
C[Si](C)(C)CNc1nccc(-c2c(-c3ccc(F)cc3)nn3c2CCCC3)n1 [compound 35]	99%	0%	100%	99%	99%	0%	67%
CC(CO)Nc1nccc(-c2c(-c3ccccc3)nn3c2COCC3)n1 (centres unmarked) [compound 122]	96%	0%	80%	99%	73%	100%	99%
CCC(C)Nc1nccc(-c2c(-c3cccc(F)c3)nn3c2CCC3)n1 (centres unmarked) [compound 101]	89%	0%	94%	99%	92%	91%	57%
CC(CS(=O)(=O)[O-])Nc1nccc(-c2c(-c3ccc(F)cc3)nn3c2CCCC3)n1.[Na+] (centres unmarked) [compound 64]	0%	0%	0%	0%	0%	0%	0%
CC(CO)Nc1nccc(-c2c(-c3ccsc3)nn3c2CCCC3)n1 (centres unmarked) [compound 42]	85%	0%	59%	66%	0%	100%	99%
